Like-named read-outs stand apart in the source and are kept apart here.
Columns and labels:
[1] = tested on: mouse embryonic stem (mES) reporter cell lines
[2] = tested on: Bscl2; assay: ToxTracker genotoxicity assay, Bscl2-GFP reporter
[3] = tested on: Rtkn; conditions: mouse
[4] = tested on: Rtkn; assay: ToxTracker genotoxicity assay, Rtkn-GFP reporter
[5] = Bscl2 and Rtkn, absence and presence of S9
[6] = With S9 rat liver extract, at 50% cytotoxicity, 3 h exposure and 24 h recovery
[7] = With S9 rat liver extract, at 25% cytotoxicity, 3 h exposure and 24 h recovery
[8] = Without S9 rat liver extract, at 10% cytotoxicity, 24 h exposure
[9] = Without S9 rat liver extract, at 25% cytotoxicity, 24 h exposure
[10] = Without S9 rat liver extract, at 50% cytotoxicity, 24 h exposure
[11] = With S9 rat liver extract, at 10% cytotoxicity, 3 h exposure and 24 h recovery

SMILES	Genotoxicity test result (overall) [1, 5]	Genotoxicity test result (overall) [1]	Bscl 2 GFP reporter induction level [2, 6]	Rtkn GFP reporter induction level [3]	Rtkn GFP reporter induction level [4, 7]	Rtkn GFP reporter induction level [4, 6]	Rtkn GFP reporter induction level [4, 8]	Rtkn GFP reporter induction level [4, 9]	Rtkn GFP reporter induction level [4, 10]	Bscl 2 GFP reporter induction level [2, 11]	Bscl 2 GFP reporter induction level [2, 7]	Bscl 2 GFP reporter induction level [2, 8]	Bscl 2 GFP reporter induction level [2, 9]	Bscl 2 GFP reporter induction level [2, 10]	Rtkn GFP reporter induction level [4, 11]
CCCCC(CC)COCC(CN1CC1C)OC(=O)NCCCCCCn1c(=O)n(CCCCCCNC(=O)OC(COCC(CC)CCCC)CN2CC2C)c(=O)n(CCCCCCNC(=O)OC(COCC(CC)CCCC)CN2CC2C)c1=O (centres unmarked) [Composition 23]	non-genotoxic														
CCC(COC(=O)CCN1CC1C)(COC(=O)CCN1CC1C)COC(=O)CCN1CC1C (centres unmarked) [Comp. Ex. 1, trimethylolpropane tris(2-methyl aziridinepropionate), reference compound]		genotoxic													
CCCCOCC(CN1CC1C)OC(=O)NCCCCCCn1c(=O)n(CCCCCCNC(=O)OC(COCCCC)CN2CC2C)c(=O)n(CCCCCCNC(=O)OC(COCCCC)CN2CC2C)c1=O (centres unmarked) [Composition 1]		non-genotoxic	0.9	0.9	0.8	0.6	0.8	0.8	0.6						
CCCCOCC(CN1CC1(C)C)OC(=O)NCCCCCCn1c(=O)n(CCCCCCNC(=O)OC(COCCCC)CN2CC2(C)C)c(=O)n(CCCCCCNC(=O)OC(COCCCC)CN2CC2(C)C)c1=O (centres unmarked) [Compound. 15]		non-genotoxic	1.1		1.2	1.3	1.2	1.2	1.2	1.1	1.1	1.2	1.2	1.1	1.2
CC(CN1CC1C)OC(=O)NCCCCCCn1c(=O)n(CCCCCCNC(=O)OC(C)CN2CC2C)c(=O)n(CCCCCCNC(=O)OC(C)CN2CC2C)c1=O (centres unmarked) [Composition 16]		non-genotoxic	1.2		1.1	0.9	1.2	1.2	1.4	1.2	1.3	1.2	1.3	1.3	1.2
CCCCOCC(CN1CC1C)OC(=O)NCCCCCC/N=c1\oc(=O)n(CCCCCCNC(=O)OC(COCCCC)CN2CC2C)c(=O)n1CCCCCCNC(=O)OC(COCCCC)CN1CC1C (centres unmarked) [Composition 27]	non-genotoxic														
CCCCCCCCCC(=O)OCC(CN1CC1C)OC(=O)NCCCCCCn1c(=O)n(CCCCCCNC(=O)OC(COC(=O)CCCCCCCCC)CN2CC2C)c(=O)n(CCCCCCNC(=O)OC(COC(=O)CCCCCCCCC)CN2CC2C)c1=O (centres unmarked) [Composition 25-2]	non-genotoxic		1.1		1.1	1.2	1.1	1.2	1.0	1.0	1.1	1.1	1.2	1.0	1.1
